From patent US12472175B2, “Methods of treating venetoclax-resistant acute myeloid leukemia” (OREGON HEALTH & SCIENCE UNIVERSITY, priority 2019, dated 2025)
Blank lines part the entries; values can stand above or below the compound they belong to.

Key:
[1] = test system: MOLM-13 and MV4;11 cells with TP53 and BAX KOs; test: Small molecule inhibitor panel screen, changes common to modified MOLM-13 and MV4;11 cells; assay type: cell-based, Human; conditions: for sensitivity to FLT3 inhibitors: TP53 inactivated MV4;11 and MOLM-13 cells; for sensitivity to NTRK/ALK/ROS1 inhibitors: cells with TP53 KO; for change in drug sensitivity common to modified MOLM-13 and MV4;11 cells: TP53 and BAX KOs relative to non-targeting control
Procedure: Small-molecule inhibitors, purchased from LC Laboratories (Woburn, Mass., USA) and Selleck Chemicals (Houston, Tex., USA), were reconstituted in DMSO and stored at −80° C. Inc. Inhibitors were distributed into 384-well plates prepared with a single agent/well in a 7-point concentration series ranging from 10 μM to 0.04 μM for each drug. […] After three days of culture at 37° C. in 5% CO2, MTS reagent (CellTiter96 AQueous One; Promega Madison, Wis., USA) was added, optical density was measured at 490 nm, raw absorbance values were adjusted to a reference blank value, and then used to determine cell viability (normalized to untreated control wells). Prizm software(GraphPad) was used to perform non-linear regression analyses on normalized values for the determination of IC50.
FIG. 7A. MOLM-13 and MV4;11 cells, transduced with indicated sgRNAs/Cas9 viruses, were screened with a panel of inhibitors targeting various molecular pathways and assessed using the cell survival method described in FIG. 2A.
FIG. 7B. Analyses of FLT3 inhibitor sensitivities, in MOLM-13 and MV4;11 parental and Crispr-modified cells, as indicated. Drug sensitivity was measured as described in FIG. 2A, with IC50 measured in triplicate.

MOLM-13 cells [2] = test: Cell cycle profile by flow cytometry; assay type: cell-based, Human; conditions: TP53 KO cells, 100 nM entrectinib o/n
Procedure: FIG. 11. Entrectinib arrests cells with loss-of-function alleles for TP53 in G1. (FIG. 11A). Flow cytometry analyses of cells treated with 100 nM entrectinib o/n or vehicle alone. (FIG. 11B). Histogram representing cell cycle profiles of MOLM-13 cells transduced with sgRNAs/Cas9 viruses for non-targeting sgRNA (NT_g, n=3), TP53 sgRNA (TP53_g, n=3) or BAX (n=1); mean and standard deviation are shown where appropriate. (FIG. 11C). Cell viability assay assessing the sensitivity of the combination of entrectinib and venetoclax relative to sensitivities for each single agent on MOLM-13 cells transduced with sgRNAs/Cas9 viruses for TP53 sgRNA. Data were fit to a non-linear regression analysis with means and standard errors.

[3] = test system: primary AML patient cells; test: Ex vivo viability (MTS) drug sensitivity in primary AML patient samples (Beat AML); assay type: cell-based
Procedure: (§1) Small-molecule inhibitors, purchased from LC Laboratories (Woburn, Mass., USA) and Selleck Chemicals (Houston, Tex., USA), were reconstituted in DMSO and stored at −80° C. Inc. Inhibitors were distributed into 384-well plates prepared with a single agent/well in a 7-point concentration series ranging from 10 μM to 0.04 μM for each drug. The final concentration of DMSO was ≤1.1% in all wells. Cells were seeded into 384-well assay plates at 1,000 cells/well in RPMI-1640 media supplemented with fetal bovine serum (15%), L-glutamine, penicillin-streptomycin and antimycotic. After three days of culture at 37° C. in 5% CO2, MTS reagent (CellTiter96 AQueous One; Promega Madison, Wis., USA) was added, optical density was measured at 490 nm, raw absorbance values were adjusted to a reference blank value, and then used to determine cell viability (normalized to untreated control wells). Prizm software(GraphPad) was used to perform non-linear regression analyses on normalized values for the determination of IC50.
FIG. 3. Venetoclax sensitivity in AML patients inversely correlates with TP53 mutations and low expression of TP53 and BAX. 3A. Venetoclax (VEN) sensitivity in primary AML patient samples was measured in a viability assay across a concentration series ranging from 10 nM to 10 μM. AUC was determined for each sample and plotted relative to TP53 mutant status or TP53 expression levels. LE and HE denote lowest and highest quartile expression values, respectively. […] Within TP53 mutant groups, circles, triangles and square symbols denote loss of function (LOF), gain of function (GOF), and splice variants correspondingly. 3B. Correlation between gene expression levels from AML patient samples for TP53, BAX, PMAIP1 and TMEM14A to the respective venetoclax sensitivities represented by AUC (n=442; [36]). k, slope values generated by linear regression; r, Spearman coefficient; ****, p<0.0001; ns, not significant.
FIG. 12. Selected ex vivo drug sensitivity in AML patients' cells with mutant TP53 mutations. Histogram representing drug sensitivity, measured in primary AML patient cells ex vivo, in a viability MTS assay across a concentration series ranging from 10 nM to 10 μM, using 10,000 cells per well, in triplicates. […] Red bars denote median IC50 value.
(§2) FIG. 13. Analyses of Venetoclax sensitivities in CLL and AML patient cohorts ex vivo. Scatter plot of IC50 values are indicated. Mann-Whitney test was performed on IC50 values to ascertain statistical differences of mean. ***, p<0.001.

NTRK = test: Western blot of NTRK and downstream MAPK phosphorylation; assay type: cell-based, Human; conditions: TP53 KO MOLM-13, entrectinib 100 nM overnight; not in control or parental cells
Procedure: Whole cells extracts from MOLM-13 or MV4;11 cells were prepared using 20 mM Tris-HCl (pH 7.5), 150 mM NaCl, 1 mM Na EDTA, 1 mM EGTA, 1% Triton, 2.5 mM sodium pyrophosphate, 1 mM beta-glycerophosphate, 1 mM Na3VO4, 1 μg/ml leupeptin (Cell Signalling), 1 mM PMSF, […] (Roche) and phosphatase inhibitor cocktail (Sigma-Aldrich). Proteins were resolved on 5-15% gradient gels (Biorad), transferred to PVDF membrane (Amersham) and subjected to immunoblotting using primary, followed by corresponding HRP-conjugated secondary antibodies (Promega), or biotinylated secondary antibody followed by streptavidin conjugated to HRP(TRK antibodies).
FIG. 7E. Western blot analyses of proteins extracted from MOLM-13 parental and MOLM-13 transduced with TP53 sgRNA/Cas9 viruses and treated overnight with venetoclax (100 nM), entrectinib (100 nM) or DMSO (vehicle), and identified with antisera to pan NTRK, phosphorylated NTRK, phosphorylated ERK1/2, ERK1/2, phosphorylated AKT, AKT and GAPDH.

CLL patient specimens = test: Ex vivo venetoclax sensitivity in CLL patient cohort; assay type: cell-based
Procedure: as §1, §2

MOLM-13 cells [4] = test: Cell viability (MTS) drug sensitivity assay in MOLM-13 cells transduced with sgRNA/Cas9 viruses; assay type: cell-based, Human
Procedure: as §1
FIG. 2. A. Confirmation of genes conferring venetoclax resistance in MOLM-13 and MV4;11 cells and correlations with changes in apoptotic gene transcription in AML patients. MOLM-13 (FIG. 2A) or MV4;11 (FIG. 2B) cells were transduced with lentiviruses carrying single sgRNA/Cas9 constructs targeting TP53, BAX, PMAIP1, FAU or control (non-targeting; NT_g). 10 days post transduction, venetoclax sensitivity was measured in triplicate by colorimetric MTS assay using a 7-point concentration range (4 nM to 10 μM). Percentages of viable cells, after normalization to untreated controls, were fit using non-linear regression analyses; mean and standard errors are shown. MOLM-13P, parental MOLM-13 cells. MV4;11P, parental MV4;11 cells. FIG. 2C. Histogram (log 2 scale) summarizing changes in venetoclax sensitivity in parental MOLM-13 (black shaded), parental MV4;11 cells (grey shaded) or cells transduced with indicated sgRNA/Cas9 viruses., IC50 values were calculated by non-linear regression analyses in the cell viability assay described in panel A. FIG. 2D. […]

MOLM-13 cells [5] = conditions: cells with inactivation of TP53 and BAX, regardless of venetoclax treatment
MOLM-13 cells [6] = test: Mitochondrial membrane potential (JC-1); assay type: cell-based, Human; conditions: TP53 and BAX mutant cells, CCCP alone
Procedure: Membrane depolarization was induced with CCCP. Cells were treated with 100 nM venetoclax or DMSO and with or without CCCP for 2 hrs prior to addition of the dye and flow cytometry.
FIG. 5. […] Histogram of a representative mitophagy experiment (n=2). […] FIG. 5B. […] FIGS. 5C, 5D. […] FIG. 5E. […] FIG. 5F. Cell viability assay in response to elesclomol.

[7] = sensitivity printed as IC50≥0.5 μM

Compound: CNC(=O)c1cc(Oc2ccc(NC(=O)Nc3ccc(Cl)c(C(F)(F)F)c3)cc2)ccn1 [sorafenib]
sensitivity to FLT3 inhibitors [1]: loss of sensitivity

Compound: CN1CCN(c2ccc(C(=O)Nc3n[nH]c4ccc(Cc5cc(F)cc(F)c5)cc34)c(NC3CCOCC3)c2)CC1 [entrectinib]
sensitivity to NTRK/ALK/ROS1 inhibitors [1]: sustained gain of sensitivity
cell cycle effect (MOLM-13 cells [2]): G1 cell cycle blockade
ex vivo drug sensitivity in AML patient cells with TP53 mutations ([3]; several patient specimens, 10 nM to 10 μM): relatively high sensitivity
phosphorylation of NTRK and downstream MAPK signaling (NTRK): significant decreases in phosphorylation

Compound: Oc1cccc(-c2nc(N3CCOCC3)c3oc4ncccc4c3n2)c1 [PI-103]
change in drug sensitivity common to modified MOLM-13 and MV4;11 cells [1]: increased

Compound: C[C@@H](Oc1cc(-c2cnn(C3CCNCC3)c2)cnc1N)c1c(Cl)ccc(F)c1Cl [crizotinib]
sensitivity to NTRK/ALK/ROS1 inhibitors [1]: sustained gain of sensitivity

IC50 (CLL patient specimens; Homo sapiens, CLL, 141 patients, read-out: Median IC50, venetoclax sensitivity ex vivo, CLL cohort): 1400 nM
Compound: CC1(C)CCC(CN2CCN(c3ccc(C(=O)NS(=O)(=O)c4ccc(NCC5CCOCC5)c([N+](=O)[O-])c4)c(Oc4cnc5[nH]ccc5c4)c3)CC2)=C(c2ccc(Cl)cc2)C1 [venetoclax]
IC50 ([3]; Homo sapiens, AML, 289 patients, read-out: Median IC50, venetoclax sensitivity ex vivo, AML cohort): 100 nM
median IC50 for AML relative to that for CLL ([3]; ex vivo patient samples, Beat AML cohort): 14 times
share of AML specimens exhibiting sensitivity to venetoclax [3, 7]: about 40%
share of CLL specimens exhibiting sensitivity to venetoclax (CLL patient specimens; [7]): ~55%

Compound: O=C(Nc1cnn2ccc(N3CCC[C@@H]3c3cc(F)ccc3F)nc12)N1CC[C@H](O)C1 [larotrectinib]
sensitivity to selective NTRK inhibitor (MOLM-13 cells [4]; TP53 KO): profound gain of sensitivity

Compound: CC1(COc2ccc3c(c2)ncn3-c2ccc3cccc(N4CCC(N)CC4)c3n2)COC1 [crenolanib]
sensitivity to FLT3 inhibitors [1]: loss of sensitivity

Compound: Cc1cc(Nc2nc(N[C@@H](C)c3ncc(F)cn3)ncc2Cl)n[nH]1 [AZD1480]
sensitivity to NTRK/ALK/ROS1 inhibitors [1]: sustained gain of sensitivity

Compound: CN(NC(=O)CC(=O)NN(C)C(=S)c1ccccc1)C(=S)c1ccccc1 [elesclomol]
cell viability in response to elesclomol (MOLM-13 cells [4]; TP53 and BAX KO cells): still susceptible to cell death

Compound: O=S(=O)(NCCNC/C=C/c1ccc(Br)cc1)c1cccc2cnccc12 [H-89]
change in sensitivity between BAX-inactivated MV4;11 and MOLM-13 cells ([1]; BAX-inactivated, also overlapped in TP53 inactivated cells): concordant changes

Compound: CS(=O)(=O)N1CCN(Cc2cc3nc(-c4cccc5[nH]ncc45)nc(N4CCOCC4)c3s2)CC1 [GDC-0941]
change in drug sensitivity common to modified MOLM-13 and MV4;11 cells [1]: increased

Compound: COc1ccc(COc2ccc(Cc3cnc(N)nc3N)cc2OC)cc1 [GW-2580]
sensitivity to NTRK/ALK/ROS1 inhibitors [1]: sustained gain of sensitivity

Compound: carboyl cyanide m-chlorophenyl hydrazine [CCCP]
mitophagy in response to mitochondrial uncoupler (MOLM-13 cells [5]): less likely to undergo mitophagy or mitochondrial death
loss of mitochondrial membrane potential in response to uncoupler (MOLM-13 cells [6]): less likely to lose mitochondrial membrane potential

Compound: Cc1c2c(nn1C)CSCc1cc(n(C)n1)CSc1cc(c3ccccc3c1)OCCCc1c(C(=O)O)n(C)c3c-2c(Cl)ccc13 [AZD5991]
sensitivity to MCL1 inhibitor, TP53 KO (MOLM-13 cells [4]; TP53 KO MOLM13 cells): significantly diminished

Compound: COCCn1c2c([n+](Cc3cnccn3)c1C)C(=O)c1ccccc1C2=O [YM-155]
change in drug sensitivity common to modified MOLM-13 and MV4;11 cells [1]: increased
